In brackets after ≈: the same amount, converted by molar mass. Activity calls are given as the source filed them. The calls are words filed in the database; no cut-off is given here.

Series [1] is described as follows: Kinetic aqueous solubility of the compound in PBS incubated for 2 hrs under mild shaking at pH 7.4 by UV- vis spectrophotometric analysis. The class given is physicochemical. The conditions noted are these: read-out: Kinetic_solubility.
Series [2] in a line: 1-Octanol/PBS buffer distribution coefficient, log D of the compound at 1 uM measured after 24 hrs at pH 7.4 by shake flask based HPLC-ES-MS/MS analysis. It is filed as physicochemical.
Series [3] can be described thus: Chromatographic hydrophobicity index of the compound in ammonium acetate buffer at pH 7.4 by RP-HPLC analysis. It is filed as physicochemical.
The nature of series [4]: Effective permeability of the compound in PBS buffer at pH 7.4 by PAMPA-BBB assay. The class given is ADME. The conditions noted are these: read-out: Peff.
Series [5] is described as follows: Apparent permeability across basolateral to apical side in human Caco-2 cells at 10 uM incubated for 60 mins by HPLC-MS/MS method. It is filed as ADME, cell-based.
Series [6] in a line: Apparent permeability across apical to basolateral side in human Caco-2 cells at 10 uM incubated for 60 mins by HPLC-MS/MS method. It is filed as ADME, cell-based.
Series [7] in a line: Efflux ratio of apparent permeability across basolateral to apical side over apical to basolateral side in human Caco-2 cells. It is filed as ADME, cell-based.
Series [8] in a line: Microsomal stability in human liver microsomes assessed as half life at 0.5 uM incubated upto 60 mins in presence of NADPH by LC/MS/MS analysis. The class given is ADME, Microsome.
Series [9] can be described thus: Microsomal stability in mouse liver microsomes assessed as half life at 0.5 uM incubated upto 30 mins in presence of NADPH by LC/MS/MS analysis. It is filed as ADME, Microsome.
The nature of series [10]: Intrinsic clearance in human liver microsomes at 0.5 uM incubated upto 60 mins in presence of NADPH measured per mg protein by LC/MS/MS analysis. It is filed as ADME, Microsome. The conditions noted are these: read-out: CLH.
A short description of series [11]: Intrinsic clearance in mouse liver microsomes at 0.5 uM incubated upto 30 mins in presence of NADPH measured per mg protein by LC/MS/MS analysis. It is filed as ADME, Microsome. Conditions: read-out: CLH.
A further series has as its target Cytochrome P450 3A4 (Homo sapiens, UniProt P08684). Kind of series: Inhibition of human recombinant CYP3A4 expressed in baculosomes by fluorescent homogenous assay. It is filed as ADME.
The target in another series is Albumin (Homo sapiens, UniProt P02768). Kind of series: Binding affinity to human serum albumin assessed as dissociation […] constant by surface plasmon resonance assay. The class given is ADME, cell-free.
Sequence of Albumin (P02768 whole entry): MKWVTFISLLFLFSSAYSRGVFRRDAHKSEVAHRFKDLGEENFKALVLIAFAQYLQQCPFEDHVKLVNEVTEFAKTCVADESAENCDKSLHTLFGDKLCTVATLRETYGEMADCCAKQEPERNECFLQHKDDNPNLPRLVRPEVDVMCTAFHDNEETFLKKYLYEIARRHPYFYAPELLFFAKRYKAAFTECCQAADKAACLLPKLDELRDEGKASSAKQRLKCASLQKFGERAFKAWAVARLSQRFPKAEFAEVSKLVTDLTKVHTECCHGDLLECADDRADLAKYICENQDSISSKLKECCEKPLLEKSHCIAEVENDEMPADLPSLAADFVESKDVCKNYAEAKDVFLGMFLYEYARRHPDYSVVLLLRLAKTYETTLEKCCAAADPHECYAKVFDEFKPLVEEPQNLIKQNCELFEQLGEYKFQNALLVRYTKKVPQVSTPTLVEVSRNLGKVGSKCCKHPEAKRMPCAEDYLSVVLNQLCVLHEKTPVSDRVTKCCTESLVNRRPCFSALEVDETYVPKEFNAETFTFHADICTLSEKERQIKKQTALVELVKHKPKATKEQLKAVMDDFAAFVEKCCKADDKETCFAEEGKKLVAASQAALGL
Series [12] relates to SH-SY5Y. The experiment in a line: Cytotoxicity against human SH-SY5Y cells assessed as reduction in cell viability at 1 to 100 uM incubated for 4 hrs by CellTiter-Glo luminescence assay. Conditions: dose 1-100 µM. It is filed as toxicity, cell-based.
Series [13] relates to HepG2. The experiment in a line: Cytotoxicity against human HepG2 cells assessed as reduction in cell viability at 1 to 100 uM incubated for 4 hrs by CellTiter-Glo luminescence assay. It is filed as toxicity, cell-based. Conditions: hepg2, 4 h, dose 1-100 µM.
For a further series, the target named is T1, MAO-A (Homo sapiens, UniProt P21397).
T1 sequence (P21397 whole entry): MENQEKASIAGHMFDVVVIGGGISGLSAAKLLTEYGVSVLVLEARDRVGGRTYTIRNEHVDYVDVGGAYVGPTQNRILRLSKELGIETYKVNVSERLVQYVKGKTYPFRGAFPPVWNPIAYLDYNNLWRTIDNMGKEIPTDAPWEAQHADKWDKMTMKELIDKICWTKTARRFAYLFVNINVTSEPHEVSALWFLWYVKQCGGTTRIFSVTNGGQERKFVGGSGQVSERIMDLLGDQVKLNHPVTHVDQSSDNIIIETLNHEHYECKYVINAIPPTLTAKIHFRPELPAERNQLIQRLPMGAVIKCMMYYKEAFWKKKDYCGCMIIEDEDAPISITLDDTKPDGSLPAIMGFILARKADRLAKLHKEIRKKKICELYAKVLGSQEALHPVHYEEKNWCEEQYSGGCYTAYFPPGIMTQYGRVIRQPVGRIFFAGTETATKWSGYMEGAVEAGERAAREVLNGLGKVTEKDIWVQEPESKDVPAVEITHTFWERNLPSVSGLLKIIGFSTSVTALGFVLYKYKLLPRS
The experiment in a line: in vitro. Conditions: recombinant MAO-A expressed in supersomes, probe kynuramine.

Series [14] addresses T2, Amine oxidase [flavin-containing] B (Homo sapiens, UniProt P27338).
T2 sequence (P27338 whole entry): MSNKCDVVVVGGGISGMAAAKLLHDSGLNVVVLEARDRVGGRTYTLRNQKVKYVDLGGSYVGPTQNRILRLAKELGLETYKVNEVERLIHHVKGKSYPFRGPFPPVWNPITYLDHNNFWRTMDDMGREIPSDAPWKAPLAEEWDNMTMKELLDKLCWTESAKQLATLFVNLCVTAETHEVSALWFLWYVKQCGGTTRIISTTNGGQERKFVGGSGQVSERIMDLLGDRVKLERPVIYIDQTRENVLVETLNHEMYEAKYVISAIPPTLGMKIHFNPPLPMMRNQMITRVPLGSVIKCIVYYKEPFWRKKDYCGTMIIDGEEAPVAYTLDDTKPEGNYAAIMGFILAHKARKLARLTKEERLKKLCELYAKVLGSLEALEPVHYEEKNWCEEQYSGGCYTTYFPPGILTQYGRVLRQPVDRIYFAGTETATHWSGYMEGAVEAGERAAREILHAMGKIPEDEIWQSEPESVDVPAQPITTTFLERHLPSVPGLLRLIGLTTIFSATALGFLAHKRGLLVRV
Kind of series: Reversible inhibition of human recombinant MAO-B expressed in supersomes using kynuramine as substrate at 10 nM co-incubated with enzyme and measured over 6 hrs by spectrophotometric method. The conditions noted are these: 0.01 µM.

The species entered for another series is Homo sapiens. Kind of series: Selectivity for human recombinant MAO-B expressed in supersomes over human recombinant MAO-A expressed in supersomes.
Series [15] deals with T2, Amine oxidase [flavin-containing] B. Kind of series: Inhibition of human recombinant MAO-B expressed in supersomes assessed as inhibition of 4-hydroxyquinoline formation using kynuramine as substrate by spectrophotometric method.
Series [16] can be described thus: Cytotoxicity against human SH-SY5Y cells assessed as reduction in cell viability incubated for 4 hrs by CellTiter-Glo luminescence assay. The class given is toxicity, cell-based.
The nature of series [17]: Cytotoxicity against human HepG2 cells assessed as reduction in cell viability incubated for 4 hrs by CellTiter-Glo luminescence assay. It is filed as toxicity, cell-based.
The target of series [18] is T2, Amine oxidase [flavin-containing] B.
Description: Inhibition of human recombinant MAO-B expressed in supersomes assessed as inhibition of 4-hydroxyquinoline formation using kynuramine as substrate by spectrofluorimetric analysis
Series [19] deals with T3, Acetylcholinesterase (Homo sapiens, UniProt P22303).
T3 sequence (P22303 whole entry): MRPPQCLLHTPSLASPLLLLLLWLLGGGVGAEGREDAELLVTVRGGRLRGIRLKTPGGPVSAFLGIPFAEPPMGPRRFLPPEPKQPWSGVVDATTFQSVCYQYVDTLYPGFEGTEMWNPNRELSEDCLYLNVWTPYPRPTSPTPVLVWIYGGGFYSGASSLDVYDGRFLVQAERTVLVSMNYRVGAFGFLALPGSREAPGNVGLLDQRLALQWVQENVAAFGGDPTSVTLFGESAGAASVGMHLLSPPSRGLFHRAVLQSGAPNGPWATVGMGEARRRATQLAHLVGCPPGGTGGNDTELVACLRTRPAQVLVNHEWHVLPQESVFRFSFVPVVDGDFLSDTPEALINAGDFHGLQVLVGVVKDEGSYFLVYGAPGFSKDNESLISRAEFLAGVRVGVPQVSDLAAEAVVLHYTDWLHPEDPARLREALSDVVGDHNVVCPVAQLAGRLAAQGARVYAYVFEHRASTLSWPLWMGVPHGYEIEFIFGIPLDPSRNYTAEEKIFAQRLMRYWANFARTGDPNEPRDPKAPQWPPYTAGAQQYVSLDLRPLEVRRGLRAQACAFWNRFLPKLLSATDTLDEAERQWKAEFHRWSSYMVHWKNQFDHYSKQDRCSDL
Description: Inhibition of human recombinant AChE by Ellman's spectrophotometric assay
The target in a further series is Cholinesterase (Equus caballus, UniProt P81908).
Sequence of Cholinesterase (P81908 whole entry): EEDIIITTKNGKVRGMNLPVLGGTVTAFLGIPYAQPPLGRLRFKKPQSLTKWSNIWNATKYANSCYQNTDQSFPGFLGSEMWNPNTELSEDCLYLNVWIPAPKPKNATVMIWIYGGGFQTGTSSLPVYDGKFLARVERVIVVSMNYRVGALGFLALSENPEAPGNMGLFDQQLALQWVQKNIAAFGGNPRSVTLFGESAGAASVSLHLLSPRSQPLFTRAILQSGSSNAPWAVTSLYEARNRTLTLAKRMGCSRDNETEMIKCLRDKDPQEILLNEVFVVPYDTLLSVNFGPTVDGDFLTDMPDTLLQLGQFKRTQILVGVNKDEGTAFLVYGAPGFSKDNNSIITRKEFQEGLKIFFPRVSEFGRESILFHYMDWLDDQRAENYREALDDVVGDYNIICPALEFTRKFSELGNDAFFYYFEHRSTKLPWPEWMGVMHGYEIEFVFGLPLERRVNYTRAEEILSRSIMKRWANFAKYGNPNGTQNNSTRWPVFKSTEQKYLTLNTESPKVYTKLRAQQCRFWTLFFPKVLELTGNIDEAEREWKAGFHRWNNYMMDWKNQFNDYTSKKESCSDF
In series [20] the test system is HepG2. Kind of series: Cytotoxicity against human HepG2 cells assessed as reduction in cell viability at 100 uM incubated for 4 hrs by CellTiter-Glo luminescence assay. The class given is toxicity, cell-based. The conditions noted are these: hepg2, 4 h.
In series [21] the target is T3, Acetylcholinesterase. The experiment in a line: Mixed type inhibition of human AChE by Lineweaver-Burk plot analysis.
Series [22] addresses T2, Amine oxidase [flavin-containing] B. The experiment in a line: Competitive inhibition of human recombinant MAO-B expressed in supersomes using kynuramine as substrate by Lineweaver-Burk plot analysis.
For series [23], the system named is SH-SY5Y. Kind of series: Cytotoxicity against human SH-SY5Y cells assessed as reduction in cell viability at 100 uM incubated for 4 hrs by CellTiter-Glo luminescence assay. The class given is toxicity, cell-based.
Series [24] deals with SH-SY5Y. The experiment in a line: Neuroprotective activity against H2O2-induced neurotoxicity in human SH-SY5Y cells assessed as increase in cell viability at 1 to 5 uM co-incubated with H2O2 for 24 hrs by MTT assay. It is filed as functional, cell-based. The conditions noted are these: dose 1-5 µM.
Series [25] concerns SH-SY5Y. Kind of series: Neuroprotection against Amyloid beta-induced cytotoxicity in human SH-SY5Y cells assessed as increase in cell viability at 0.1 to 1 uM co-incubated with Amyloid beta for 24 hrs by MTT assay. The class given is functional, cell-based. The conditions noted are these: dose 0.1-1 µM.
Series [26] relates to SH-SY5Y. The experiment in a line: Neuroprotective activity against NMDA -induced cytotoxicity in human SH-SY5Y cells assessed as increase in cell viability at 0.1 to 5 uM co-incubated with NMDA for 24 hrs by MTT assay. The class given is functional, cell-based. Conditions: dose 0.1-5 µM.
The target in series [27] is Cholinesterase (Equus caballus) (UniProt P81908). Kind of series: Inhibition of horse serum BChE at 10 uM by Ellman's spectrophotometric assay. It is filed as cell-free.
Sequence of Cholinesterase (Equus caballus) (P81908 whole entry): as above

Sequence of Cytochrome P450 3A4 (P08684 whole entry): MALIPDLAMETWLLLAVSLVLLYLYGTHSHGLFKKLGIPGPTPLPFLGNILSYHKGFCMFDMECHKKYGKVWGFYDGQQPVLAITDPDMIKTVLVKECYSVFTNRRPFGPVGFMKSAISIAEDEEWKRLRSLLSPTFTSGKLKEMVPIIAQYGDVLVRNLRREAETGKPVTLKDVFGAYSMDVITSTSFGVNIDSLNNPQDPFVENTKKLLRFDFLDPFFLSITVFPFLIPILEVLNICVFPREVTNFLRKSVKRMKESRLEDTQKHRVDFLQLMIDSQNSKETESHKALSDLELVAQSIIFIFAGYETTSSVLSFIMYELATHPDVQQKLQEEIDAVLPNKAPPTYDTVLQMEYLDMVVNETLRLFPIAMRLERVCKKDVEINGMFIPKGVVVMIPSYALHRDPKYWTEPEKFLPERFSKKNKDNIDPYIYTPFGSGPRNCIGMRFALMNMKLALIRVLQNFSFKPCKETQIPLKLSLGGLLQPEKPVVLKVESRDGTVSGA

With `Cc1c(C)c2ccc(OCC3CCN(CCCO)CC3)cc2oc1=O`, the solubility kinetic at 2 h in [1] was over 500 µM. This molecule came in with a log distribution coefficient (logD) at 24 h, 1 µM in series [2] of 0.86. In [3], this molecule displayed a CHI of 47.3. In [4], the Papp was found to be 6 ×10⁻⁶ cm/s. The apparent permeability from basolateral to apical (Papp B→A) at 1 h, 10 µM in [5] stood at 22 ×10⁻⁶ cm/s. The Papp A→B at 1 h, 10 µM in series [6] was 19 ×10⁻⁶ cm/s. In addition, in [7], the efflux ratio amounted to 1.2. The half-life at 0.5 µM in series [8] is over 120 min; in series [9], 47.2 min. Besides, the microsomal CLint at 0.5 µM in [10] was under 11.5 µL/min/mg; in series [11] it was 29.5 µL/min/mg. For the same molecule, the concentration for half-maximal inhibition (IC50) on Cytochrome P450 3A4 is over 10000 nM. The Kd at Albumin came out at 31700 nM. For the same molecule, the Activity result in the series with SH-SY5Y [12] and in the series with HepG2 [13] was “Non-Toxic” each time. Besides, on MAO-A, the inhibition at 10 µM was found to be 50%.
In the case of `C[C@H](NCc1ccc(OCc2cccc(F)c2)cc1)C(N)=O` [SAFINAMIDE], the “inhibition (INH)” value in [14] is listed as “Active”.
Regarding `CN(Cc1ccc(COc2ccc3c(CO)cc(=O)oc3c2)cc1)Cc1cccc(F)c1`, in series [1], the solubility kinetic at 2 h stood at 2.4 µM (≈ 1.04 µg/mL). The logD at 24 h, 1 µM in series [2] came to 4.29. In [3], this molecule registered a CHI of over 100. In addition, the half-life at 0.5 µM in [9] came to 36.9 min. In addition, in [11], the microsomal CLint at 0.5 µM worked out at 37.7 µL/min/mg. Moreover, the IC50 at Cytochrome P450 3A4 was found to be 3500 nM; in [18], 10 nM; at Acetylcholinesterase [19], 330 nM; on Cholinesterase, 1100 nM. The Selectivity Index in the series listed under Homo sapiens was over 1000. In series [15], the “inhibition (INH)” value is “Active”. The concentration for half-maximal inhibition (IC50) at 4 h in [16] and in series [17] was 40000 nM in each case. Besides, the inhibition at 10 µM at MAO-A worked out at 47%.
Take `CN(CCCC(F)F)Cc1ccc(COc2ccc3c(CO)cc(=O)oc3c2)cc1`: the solubility kinetic at 2 h in [1] was 201 µM (≈ 83.9 µg/mL). In [2], the logD at 24 h, 1 µM came to 2.48. This molecule also returned a CHI in [3] of 76.4. For the same molecule, the Papp in series [4] is over 14 ×10⁻⁶ cm/s. In addition, the Papp B→A at 1 h, 10 µM in series [5] is 16 ×10⁻⁶ cm/s. In addition, in series [6], the Papp A→B at 1 h, 10 µM was found to be 25 ×10⁻⁶ cm/s. For the same molecule, the efflux ratio in [7] came out at 0.6. For the same molecule, the Activity entry in the series with HepG2 [20] and in the series on SH-SY5Y [23] was “Non-Toxic” throughout. Moreover, the half-life at 0.5 µM is 34.9 min in [8] and 25 min in series [9]. The microsomal CLint at 0.5 µM was 39.8 µL/min/mg in series [10] and 55.6 µL/min/mg in series [11]. Moreover, the IC50 was 10000 nM on Cytochrome P450 3A4, 8.2 nM in series [18] and 550 nM against Acetylcholinesterase [19]. The values for the inhibitory constant (Ki) (at Acetylcholinesterase [21]; in [22]) were 2000 nM and 13 nM, respectively. Besides, the result with SH-SY5Y [24], in the series on SH-SY5Y [25] and in the series on SH-SY5Y [26] was Active. Also, the dissociation constant (Kd) at Albumin came out at 11300 nM. In series [27], this molecule yielded an inhibition of 34%. In the series listed under Homo sapiens, the Selectivity Index is over 1250. Further, the “inhibition (INH)” value in [15] and in series [14] was “Active” each time. For the same molecule, at MAO-A, the inhibition at 10 µM came to 34%.

These data come from ChEMBL document CHEMBL5046285, “Probing Fluorinated Motifs onto Dual AChE-MAO B Inhibitors: Rational Design, Synthesis, Biological Evaluation, and Early-ADME Studies” (J Med Chem, 2022).
